The record followed here is ChEMBL document CHEMBL1671626, “In vitro profiling of ceftaroline against a collection of recent bacterial clinical isolates from across the United States” (2008).

Assay type in all cases: functional
The test system of one test is Pasteurella multocida. Briefly: Antibacterial activity against Pasteurella multocida assessed as susceptible isolates by CLSI M7-A7 broth microdilution method. A general note: In broth dilution the organism is exposed to a series of concentrations in liquid medium.
Test [1] relates to Streptococcus pyogenes. Put plainly: Antibacterial activity against erythromycin-nonsusceptible Streptococcus pyogenes assessed as resistant isolates by CLSI M7-A7 broth microdilution method.
In test [2] the test system is Streptococcus pyogenes. Put plainly: Antibacterial activity against erythromycin-susceptible Streptococcus pyogenes assessed as resistant isolates by CLSI M7-A7 broth microdilution method.
In a further test the test system is Streptococcus viridans. Briefly: Antibacterial activity against penicillin-nonsusceptible Streptococcus viridans assessed as resistant isolates by CLSI M7-A7 broth microdilution method.
Test [3] relates to Enterococcus faecalis. Briefly: Antibacterial activity against vancomycin-susceptible Enterococcus faecalis assessed as resistant isolates by CLSI M7-A7 broth microdilution method.
Test [4] relates to Enterococcus faecium. Briefly: Antibacterial activity against vancomycin-resistant Enterococcus faecium assessed as susceptible isolates by CLSI M7-A7 broth microdilution method.
Test [5] relates to Streptococcus agalactiae. Put plainly: Antibacterial activity against erythromycin-nonsusceptible Streptococcus agalactiae assessed as resistant isolates by CLSI M7-A7 broth microdilution method.
The subject of test [6] is Enterococcus faecium. Put plainly: Antibacterial activity against vancomycin-resistant Enterococcus faecium assessed as resistant isolates by CLSI M7-A7 broth microdilution method.
The test system of test [7] is Enterococcus faecalis. Put plainly: Antibacterial activity against vancomycin-susceptible Enterococcus faecalis assessed as susceptible isolates by CLSI M7-A7 broth microdilution method.
Test [8] relates to Enterococcus faecalis. Briefly: Antibacterial activity against vancomycin-resistant Enterococcus faecalis assessed as resistant isolates by CLSI M7-A7 broth microdilution method.
Test [9] relates to Streptococcus agalactiae. Put plainly: Antibacterial activity against erythromycin-susceptible Streptococcus agalactiae assessed as resistant isolates by CLSI M7-A7 broth microdilution method.
For test [10], the system named is Enterococcus faecalis. Put plainly: Antibacterial activity against vancomycin-resistant Enterococcus faecalis assessed as susceptible isolates by CLSI M7-A7 broth microdilution method.

`CO/N=C(\C(=O)N[C@@H]1C(=O)N2C(C(=O)O)=C(CSc3nc(=O)c(O)nn3C)CS[C@H]12)c1csc(N)n1` [CEFTRIAXONE]: the Activity in the test with Pasteurella multocida was found to be 100%.

As for `C[C@H]1COc2c(N3CCN(C)CC3)c(F)cc3c(=O)c(C(=O)O)cn1c23.C[C@H]1COc2c(N3CCN(C)CC3)c(F)cc3c(=O)c(C(=O)O)cn1c23.O` [LEVOFLOXACIN], the Activity is on record as 95.5% with Pasteurella multocida; 0% in the test with Streptococcus pyogenes [1]; 0% in the test on Streptococcus pyogenes [2]; 7.1% in the test with Streptococcus viridans; 40.8% in the test on Enterococcus faecalis [3]; 0% in the test with Enterococcus faecium [4]. The Activity was determined as 2.4% with Streptococcus agalactiae [5]; 100% with Enterococcus faecium [6]; 59.2% with Enterococcus faecalis [7]; 96% with Enterococcus faecalis [8]; 0% with Streptococcus agalactiae [9]; 4% in the test with Enterococcus faecalis [10].
